# Laboratory results published in publication PMC8001783, “New Lignanamides with Antioxidant and Anti-Inflammatory Activities Screened Out and Identified from Warburgia ugandensis Combining Affinity Ultrafiltration LC-MS with SOD and XOD Enzymes” (Antioxidants, 2021).
# Several values for one entry are separate records, joined by “and”; a condition that tells them apart may be missing. Equal values may be shown once. Marks after values point to notes of the source that are not given here.
# Assays:
# xanthine oxidase (XOD) = assay: Affinity ultrafiltration LC-MS/MS with XOD (relative binding affinity); details: peaks of WUE-A4, XOD 2 U, 37 °C 1 h, n = 3
# Method: (§1) The experimental conditions were proposed according to previous relevant studies. Briefly, the optimized experiment was composed of three steps. Incubation was the first step, where 100 μL WUE-A4 (10.0 mg/mL), 10 µL SOD (2 U) or XOD (2 U), and 90 µL Tris-HCl (pH = 7.8) were mixed well in 1.5 mL EP tubes, and then incubated at 37 °C in the dark for 1 h. Meanwhile, the incubation operations of inactivated enzymes (inactivated enzymes were obtained by heating enzymes in a 99 °C water bath for 10 min) were the same as the active enzymes. Adsorption was the second step, where the incubated solutions were transferred to ultrafiltration tubes with 30 KDa (for SOD) or 10 KDa (for XOD) ultrafiltration membranes and then centrifuged at 10,000 rpm for 10 min at 25 °C. Simultaneously, components which had no binding affinity to enzymes were washed out. Immediately, 300 µL of Tris-HCl solution (pH = 7.8) was added to the ultrafiltration tubes and centrifuged at 10,000 rpm for 5 min at 25 °C to remove the potential unbound components. Desorption was the third step, where 300 µL of 90% (v/v) MeOH-H2O was added and incubated for 10 min at room temperature, and the mixed solutions were centrifuged at 10,000 rpm for another 10 min at 25 °C. After that, the desorption process was repeated two times to release those components with specific bindings to SOD or XOD from the enzyme-ligand complexes. Finally, those ultrafiltrates were dried and reconstituted in 50 µL MeOH for the HPLC-UV/ESI-MS/MS analysis.
# (§2) HPLC-UV/ESI-MS/MS was carried out to characterize the components in WUE-A4 before and after ultrafiltration by using a Thermo Accela 600 series HPLC connected with a TSQ Quantum Access MAX mass spectrometer (Thermo Fisher Scientific, San Jose, CA, USA). A Waters Symmetry RP-C18 column (4.6 × 250 mm, 5 µm) was used to perform chromatographic analysis at 30 °C, and the mobile phase consisted of H2O with 0.1% formic acid (A) and ACN (B). The optimized HPLC elution procedures were as follows: 0–15 min, 17% B; 15–40 min, 17–30% B, 40–42 min: 30–56% B. The flow rate was 0.8 mL/min, the injection volume was 10 µL, and the HPLC-UV chromatograms were detected at a wavelength of 254 nm. The negative ion modes were applied to obtained ESI-MS/MS data. Moreover, the parameters of instrument were set as follows: the vaporizer temperature was 350 °C, the capillary temperature was 250 °C, the spray voltage was 3000 V, the cone voltage energy was 40 V, the collision energy was 10 V, the sheath gas pressure was 40 psi, the aux gas pressure was 10 psi, the drying gas flow rate was 6.0 L/min, and the mass range was set from 50 to 1100 (m/z) in the full-scan mode. Finally, the Thermo Xcalibur ChemStation (Thermo Fisher Scientific) was used for data acquisition and analysis.
# (§3) For further evaluation of the affinity binding strength between the potential ligands and the target enzymes, the relative binding affinity (RBA) was employed to compare the variation of the correlated peak areas in the UF-HPLC-UV chromatograms before and after activation. The RBA formula is expressed as RBA = Aactive/Ainactivated, where the Aactive and Ainactivated represent the peak areas obtained from the WUE-A4 samples with activated and inactivated SOD or XOD, respectively.
# [1] = ABTS free radical scavenging assay; details: 30 min, 734 nm, n = 3; for IC50: pure compounds
# Method: The ABTS free radical scavenging activities of extracts and pure compounds from stem barks of W. ugandensis were tested according to previous studies with slight modifications. ABTS^+ solution was prepared by mixing equal volumes of potassium persulfate (4.9 mM in H2O) and ABTS (7.0 mM in H2O) and then incubated for 12 h in the darkness. The prepared ABTS^+ solution was diluted with MeOH to ensure an absorbance value about 0.700 ± 0.005 at 734 nm. Firstly, 10 µL of appropriately diluted solution of samples was added to the 190 µL ABTS^+ solution in 96-well plate. Secondly, the mixtures were gently shaken and put at room temperature for 30 min in the darkness. Finally, the absorbance was recorded at 734 nm with multifunctional microplate reader. Trolox was used as positive control, and MeOH was used as blank control. Samples and controls were tested in triplicate (n = 3). The antioxidant activities of ABTS were expressed as IC50 and TEAC values. The inhibition of the ABTS radicals was calculated according to the following formula:ABTS scavenging activity (%) = (1 − absorbance of sample/absorbance of blank control) × 100,(2) where ABTS scavenging activities (%) were plotted against the concentration of samples to acquire the IC50.
# [2] = Ferric reducing antioxidant power (FRAP) assay; details: 37 °C, 10 min, 593 nm, n = 3
# Method: The ferric reducing antioxidant power assays on different extracts and pure compounds of stem barks from W. ugandensis were tested according to previous studies with slight modifications. Firstly, freshly prepared FRAP reagent (Fe^3+-TPTZ solution) was composed of FeCl3∙6H2O (20 mM in H2O), TPTZ (10 mM in 40 mM HCl), and acetate buffer (300 mM, pH = 3.6) at a ratio of 1:1:10 (v/v/v), then incubated at 37 °C after preparation, and used within 1–2 h. Secondly, 10 µL of appropriately diluted solution of samples was added to the 190 µL freshly prepared FRAP reagent in 96-well plate. Thirdly, the mixtures were gently shaken and put at 37 °C for 10 min. Finally, the absorbance was recorded at 593 nm with multifunctional microplate reader. Trolox was used as a positive control, and MeOH was used as blank control. Each of the samples and controls were tested in triplicate (n = 3). The antioxidant activities of FRAP were expressed as FRAP values and TEAC values. The FRAP values were calculated and expressed as millimoles of Fe^2+ equivalents per gram of sample (mmol Fe^2+/g) based on a calibration curve plotted using FeSO4∙7H2O as standard at a concentration ranging from 0.0185 to 1.5 mM.
# [3] = DPPH free radical scavenging assay; details: 30 min, 517 nm, n = 3; for IC50: pure compounds
# Method: The DPPH free radical scavenging activities of extracts and pure compounds from stem barks of W. ugandensis were tested according to previous studies with slight modifications. Firstly, 10 µL solutions of the samples, appropriately diluted with MeOH, were homogeneously mixed with 190 µL solution of DPPH (0.1 mM in MeOH) in a 96-well plate. Secondly, the mixtures were gently shaken and put at room temperature for 30 min in the darkness. Finally, the absorbance was recorded at 517 nm with multifunctional microplate reader. Trolox was used as positive control, and MeOH was used as blank control. Each of the samples and controls were tested in triplicate (n = 3). The antioxidant activities of DPPH were expressed as IC50 (concentration of samples caused 50% inhibition) and TEAC values. The TEAC values were calculated from the standard curve of Trolox and expressed as millimoles of Trolox equivalents per gram of sample (mmol TE/g). The inhibition of the DPPH radical was calculated according to the following formula:DPPH scavenging activity (%) = (1 − absorbance of sample/absorbance of blank control) × 100,(1) where DPPH scavenging activities (%) were plotted against the concentration of samples to obtain the IC50.
# [4] = test system: superoxide dismutase (SOD); assay: Affinity ultrafiltration LC-MS/MS with SOD (relative binding affinity); design: key: -: No binding affinity; details: peaks of WUE-A4, SOD 2 U, 37 °C 1 h, n = 3
# Method: as §1, §2, §3
Molecule,UF-RBA XOD (relative binding affinity = Aactive/Ainactivated) (xanthine oxidase (XOD)),UF-RBA XOD (relative binding affinity = Aactive/Ainactivated) (xanthine oxidase (XOD); listed as peak 12),IC50 [1] [µM],FRAP value [2],IC50 [3] [µM],UF-RBA SOD (relative binding affinity = Aactive/Ainactivated) [4],ABTS IC50 ([1]; extracts/fractions),DPPH IC50 ([3]; extracts/fractions),UF-RBA SOD (relative binding affinity = Aactive/Ainactivated) ([4]; listed as peak 3)
"1-(3,4-dihydroxy-5-methoxyphenyl)-1,2-dihydroxy-7,8-dihydroxy-N-[(4-hydroxyphenyl)-ethyl]-N′-[(4-hydroxyphenyl) -ethyl]-6-methoxynaphthalene-2,3-dicarboxamide [compound 12]","1.7 ± 0.5 ^b,c",1.70,1150 ± 630,1.1 ± 0.2 ^c mmol Fe^2+/g,142 ± 36.1,-,,,
"Cc1c(C)c2c(c(C)c1O)CCC(C)(C(=O)O)O2 (stereo not shown) [Trolox, 6-Hydroxy-2,5,7,8-tetramethylchroman-2-carboxylic acid, reference compound]",,,22.4,16.212 ± 1.271 mmol Fe^2+/g and 16.2 ± 1.3 ^a mmol Fe^2+/g,36,,5.9 ± 0.1 ^e µg/mL,9.0 ± 0.3 ^f µg/mL,
"C[C@@H]1O[C@@H](O[C@@H]2[C@@H](O)[C@H](O)[C@@H](CO)O[C@H]2c2cc(-c3cc(=O)c4c(O)cc(O)cc4o3)ccc2O)[C@H](O)[C@H](O)[C@H]1O [compound 3, 2-[3-[2-O-(6-deoxy-α-L-mannopyranosyl)-β-D-glucopyranosyl]-4-hydroxyphenyl]-5,7-dihydroxy-4H-1-benzopyran-4-one]",1.0 ± 0.2 ^d,,,,,"2.0 ± 0.1 ^a,b",,,1.99
"O=C1OCC2OC(Oc3ccc(cc3)C(=O)OCC3OC(Oc4ccc1cc4)C(O)C(O)C3O)C(O)C(O)C2O [compound 5, 4-[(6′-O-β-D-allopyranosyl)-oxy]-hydroxy-benzoic acid cyclic dimeric inner ester]","1.2 ± 0.1 ^c,d",,,,,1.1 ± 0.1 ^e,,,
